Results reported in PubChem BioAssay (NCI).
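All cell lines were grown in 96-well plates and treated with compound for 48 hours. GI50 = concentration required for 50% inhibition of growth. The concentration for full growth arrest is given as TGI.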

Key:
Test in all cases: NCI tumour cell line growth inhibition, 48 h
786-0 renal = system: 786-0 renal
A498 renal = system: A498 renal
A549 NSCLC = system: A549 NSCLC
ACHN renal = system: ACHN renal
BT-549 breast = system: BT-549 breast
CAKI-1 renal = system: CAKI-1 renal
CCRF-CEM leukemia = system: CCRF-CEM leukemia
COLO 205 colon = system: COLO 205 colon
DU-145 prostate = system: DU-145 prostate
EKVX NSCLC = system: EKVX NSCLC
HCC-2998 colon = system: HCC-2998 colon
HCT-116 colon = system: HCT-116 colon
HCT-15 colon = system: HCT-15 colon
HL-60(TB) leukemia = system: HL-60(TB) leukemia
HOP-62 NSCLC = system: HOP-62 NSCLC
HOP-92 NSCLC = system: HOP-92 NSCLC
HS 578T breast = system: HS 578T breast
HT29 colon = system: HT29 colon
IGROV1 ovarian = system: IGROV1 ovarian
K-562 leukemia = system: K-562 leukemia
KM12 colon = system: KM12 colon
LOX IMVI melanoma = system: LOX IMVI melanoma
M14 melanoma = system: M14 melanoma
MALME-3M melanoma = system: MALME-3M melanoma
MCF7 breast = system: MCF7 breast
MDA-MB-231 breast = system: MDA-MB-231 breast
MDA-MB-435 = system: MDA-MB-435
MOLT-4 leukemia = system: MOLT-4 leukemia
NCI-H226 lung = system: NCI-H226 lung
NCI-H23 lung = system: NCI-H23 lung
NCI-H460 lung = system: NCI-H460 lung
NCI-H522 lung = system: NCI-H522 lung
NCI/ADR-RES ovarian = system: NCI/ADR-RES ovarian
OVCAR-3 ovarian = system: OVCAR-3 ovarian
OVCAR-4 ovarian = system: OVCAR-4 ovarian
OVCAR-5 ovarian = system: OVCAR-5 ovarian
OVCAR-8 ovarian = system: OVCAR-8 ovarian
PC-3 prostate = system: PC-3 prostate
RPMI-8226 leukemia = system: RPMI-8226 leukemia
RXF 393 renal = system: RXF 393 renal
SF-268 CNS = system: SF-268 CNS
SF-295 CNS = system: SF-295 CNS
SF-539 CNS = system: SF-539 CNS
SK-MEL-2 melanoma = system: SK-MEL-2 melanoma
SK-MEL-28 melanoma = system: SK-MEL-28 melanoma
SK-MEL-5 melanoma = system: SK-MEL-5 melanoma
SK-OV-3 ovarian = system: SK-OV-3 ovarian
SN12C renal = system: SN12C renal
SNB-19 CNS = system: SNB-19 CNS
SNB-75 CNS = system: SNB-75 CNS
SR leukemia = system: SR leukemia
SW-620 colon = system: SW-620 colon
T-47D breast = system: T-47D breast
TK-10 renal = system: TK-10 renal
U251 CNS = system: U251 CNS
UACC-257 melanoma = system: UACC-257 melanoma
UACC-62 melanoma = system: UACC-62 melanoma
UO-31 renal = system: UO-31 renal

Compound CCC(CO)Nc1nc(NCc2ccccc2O)c2ncn(C(C)C)c2n1 (centres undefined) has a GI50 (786-0 renal) of 4.46 µM, a TGI (786-0 renal) greater than 100 µM and a GI50 (A498 renal) of 3.66 µM. For the same compound, the TGI (A498 renal) was 18 µM, the GI50 (A549 NSCLC) was 4.03 µM and the TGI (A549 NSCLC) was greater than 100 µM. It also gave a GI50 (ACHN renal) of 1.96 µM, a TGI (ACHN renal) greater than 100 µM and a GI50 (BT-549 breast) of 2.76 µM. It also gave a TGI (BT-549 breast) greater than 100 µM, a GI50 (CAKI-1 renal) of 15.6 µM and a TGI (CAKI-1 renal) of 63.4 µM. It also gave a GI50 (CCRF-CEM leukemia) of 2.21 µM, a TGI (CCRF-CEM leukemia) of 9.39 µM and a GI50 (COLO 205 colon) of 1.95 µM. It also gave a TGI (COLO 205 colon) of 3.89 µM, a GI50 (DU-145 prostate) of 4.46 µM and a TGI (DU-145 prostate) greater than 100 µM. For the same compound, the GI50 (EKVX NSCLC) was 15.2 µM, the TGI (EKVX NSCLC) was greater than 100 µM and the GI50 (HCC-2998 colon) was 0.215 µM. The TGI (HCC-2998 colon) was 6.98 µM, the GI50 (HCT-116 colon) was 2.65 µM and the TGI (HCT-116 colon) was greater than 100 µM. It also gave a GI50 (HCT-15 colon) of 2.25 µM, a TGI (HCT-15 colon) greater than 100 µM and a GI50 (HL-60(TB) leukemia) of 2.08 µM. The TGI (HL-60(TB) leukemia) was 4.58 µM, the GI50 (HOP-62 NSCLC) was 5.62 µM and the TGI (HOP-62 NSCLC) was greater than 100 µM. The GI50 (HOP-92 NSCLC) was 4.97 µM, the TGI (HOP-92 NSCLC) was 26.2 µM and the GI50 (HS 578T breast) was 3.1 µM. The TGI (HS 578T breast) was 16.7 µM, the GI50 (HT29 colon) was 3.67 µM and the TGI (HT29 colon) was 60.1 µM. The GI50 (IGROV1 ovarian) was 1.81 µM, the TGI (IGROV1 ovarian) was 5.64 µM and the GI50 (K-562 leukemia) was 0.628 µM. For the same compound, the TGI (K-562 leukemia) was 16.4 µM, the GI50 (KM12 colon) was 3.92 µM and the TGI (KM12 colon) was greater than 100 µM. For the same compound, the GI50 (LOX IMVI melanoma) was 2.63 µM, the TGI (LOX IMVI melanoma) was greater than 100 µM and the GI50 (M14 melanoma) was 4.77 µM. For the same compound, the TGI (M14 melanoma) was 18.8 µM, the GI50 (MALME-3M melanoma) was 40.1 µM and the TGI (MALME-3M melanoma) was greater than 100 µM. The GI50 (MCF7 breast) was 2.88 µM, the TGI (MCF7 breast) was 8.73 µM and the GI50 (MDA-MB-231 breast) was 4.22 µM. For the same compound, the TGI (MDA-MB-231 breast) was 38 µM, the GI50 (MDA-MB-435) was 2.64 µM and the TGI (MDA-MB-435) was 9.34 µM. The GI50 (MOLT-4 leukemia) was 2.91 µM, the TGI (MOLT-4 leukemia) was 12.9 µM and the GI50 (NCI-H226 lung) was 8.95 µM. It also gave a TGI (NCI-H226 lung) of 50.8 µM, a GI50 (NCI-H23 lung) of 2.98 µM and a TGI (NCI-H23 lung) of 15.7 µM. It also gave a GI50 (NCI-H460 lung) of 2.45 µM, a TGI (NCI-H460 lung) of 11.8 µM and a GI50 (NCI-H522 lung) of 1.8 µM. For the same compound, the TGI (NCI-H522 lung) was 8.52 µM, the GI50 (NCI/ADR-RES ovarian) was 6.63 µM and the TGI (NCI/ADR-RES ovarian) was 53.9 µM. It also gave a GI50 (OVCAR-3 ovarian) of 3.1 µM, a TGI (OVCAR-3 ovarian) of 19.8 µM and a GI50 (OVCAR-4 ovarian) of 5.42 µM. It also gave a TGI (OVCAR-4 ovarian) of 33.6 µM, a GI50 (OVCAR-5 ovarian) of 3.72 µM and a TGI (OVCAR-5 ovarian) greater than 100 µM. For the same compound, the GI50 (OVCAR-8 ovarian) was 4.21 µM, the TGI (OVCAR-8 ovarian) was greater than 100 µM and the GI50 (PC-3 prostate) was 5.67 µM. The TGI (PC-3 prostate) was 30.8 µM, the GI50 (RPMI-8226 leukemia) was 4.41 µM and the TGI (RPMI-8226 leukemia) was 20.7 µM. It also gave a GI50 (RXF 393 renal) of 3.29 µM, a TGI (RXF 393 renal) greater than 100 µM and a GI50 (SF-268 CNS) of 2.55 µM. It also gave a TGI (SF-268 CNS) of 13 µM, a GI50 (SF-295 CNS) of 2.95 µM and a TGI (SF-295 CNS) of 8.03 µM. For the same compound, the GI50 (SF-539 CNS) was 3.72 µM, the TGI (SF-539 CNS) was 28.4 µM and the GI50 (SK-MEL-2 melanoma) was 1.79 µM. The TGI (SK-MEL-2 melanoma) was 5.83 µM, the GI50 (SK-MEL-28 melanoma) was 2.35 µM and the TGI (SK-MEL-28 melanoma) was 12.8 µM. The GI50 (SK-MEL-5 melanoma) was 2.54 µM, the TGI (SK-MEL-5 melanoma) was 11.9 µM and the GI50 (SK-OV-3 ovarian) was 5.95 µM. It also gave a TGI (SK-OV-3 ovarian) of 41 µM, a GI50 (SN12C renal) of 2.77 µM and a TGI (SN12C renal) of 37.5 µM. For the same compound, the GI50 (SNB-19 CNS) was 3.3 µM, the TGI (SNB-19 CNS) was 76 µM and the GI50 (SNB-75 CNS) was 1.96 µM. It also gave a TGI (SNB-75 CNS) of 6.82 µM, a GI50 (SR leukemia) of 1.35 µM and a TGI (SR leukemia) of 4.1 µM. It also gave a GI50 (SW-620 colon) of 3.34 µM, a TGI (SW-620 colon) greater than 100 µM and a GI50 (T-47D breast) of 5.07 µM. It also gave a TGI (T-47D breast) of 32.8 µM, a GI50 (TK-10 renal) of 10.2 µM and a TGI (TK-10 renal) greater than 100 µM. For the same compound, the GI50 (U251 CNS) was 4.75 µM, the TGI (U251 CNS) was greater than 100 µM and the GI50 (UACC-257 melanoma) was 32.2 µM. For the same compound, the TGI (UACC-257 melanoma) was greater than 100 µM, the GI50 (UACC-62 melanoma) was 2.3 µM and the TGI (UACC-62 melanoma) was 12.5 µM. It also gave a GI50 (UO-31 renal) of 0.0777 µM and a TGI (UO-31 renal) of 4.27 µM.
For Nc1nc(Cl)c2ncn(Cc3ccc(CCl)cc3)c2n1, the TGI (786-0 renal) was 93.9 µM, the TGI (A498 renal) was 84.6 µM and the TGI (A549 NSCLC) was 76.2 µM. For the same compound, the TGI (ACHN renal) was 25.1 µM, the TGI (BT-549 breast) was 24.5 µM and the TGI (CAKI-1 renal) was 9.87 µM. It also gave a TGI (CCRF-CEM leukemia) greater than 100 µM, a TGI (COLO 205 colon) of 13.4 µM and a TGI (DU-145 prostate) of 19.5 µM. The TGI (EKVX NSCLC) was 7.22 µM, the TGI (HCC-2998 colon) was 8.95 µM and the TGI (HCT-116 colon) was 14.5 µM. It also gave a TGI (HCT-15 colon) of 19.8 µM, a TGI (HL-60(TB) leukemia) greater than 100 µM and a TGI (HOP-62 NSCLC) of 27.3 µM. For the same compound, the TGI (HOP-92 NSCLC) was greater than 100 µM, the TGI (HS 578T breast) was greater than 100 µM and the TGI (HT29 colon) was 27.6 µM. The TGI (IGROV1 ovarian) was 22.9 µM, the TGI (K-562 leukemia) was greater than 100 µM and the TGI (KM12 colon) was 22.9 µM. For the same compound, the TGI (LOX IMVI melanoma) was 43.9 µM, the TGI (M14 melanoma) was 37.7 µM and the TGI (MALME-3M melanoma) was 27.3 µM. For the same compound, the TGI (MCF7 breast) was 16.8 µM, the TGI (MDA-MB-231 breast) was 34.6 µM and the TGI (MDA-MB-435) was 42.5 µM. It also gave a TGI (MOLT-4 leukemia) greater than 100 µM, a TGI (NCI-H226 lung) of 37.1 µM and a TGI (NCI-H23 lung) of 30.4 µM. For the same compound, the TGI (NCI-H460 lung) was 20 µM, the TGI (NCI-H522 lung) was 25.9 µM and the TGI (NCI/ADR-RES ovarian) was 26.7 µM. It also gave a TGI (OVCAR-3 ovarian) of 5.5 µM, a TGI (OVCAR-4 ovarian) of 30.1 µM and a TGI (OVCAR-5 ovarian) of 14.9 µM. For the same compound, the TGI (OVCAR-8 ovarian) was 32.8 µM, the TGI (PC-3 prostate) was 25 µM and the TGI (RPMI-8226 leukemia) was greater than 100 µM. The TGI (RXF 393 renal) was 7.26 µM, the TGI (SF-268 CNS) was 8.38 µM and the TGI (SF-295 CNS) was 27.8 µM. The TGI (SF-539 CNS) was 9.89 µM, the TGI (SK-MEL-2 melanoma) was 29.1 µM and the TGI (SK-MEL-28 melanoma) was 44.4 µM. The TGI (SK-MEL-5 melanoma) was 31 µM, the TGI (SK-OV-3 ovarian) was 31.1 µM and the TGI (SN12C renal) was 27.1 µM. For the same compound, the TGI (SNB-19 CNS) was 20 µM, the TGI (SNB-75 CNS) was 90.2 µM and the TGI (SR leukemia) was 9.37 µM. The TGI (SW-620 colon) was 13.8 µM, the TGI (T-47D breast) was 40.1 µM and the TGI (TK-10 renal) was 40.5 µM. It also gave a TGI (U251 CNS) of 12 µM, a TGI (UACC-257 melanoma) of 47.9 µM and a TGI (UACC-62 melanoma) of 8.18 µM. The TGI (UO-31 renal) was 25.4 µM.
